{"source": "patent EP0410244A1", "about": "“Leukotriene antagonists” (BAYER AG, priority 1989, dated 1991)", "test_system": "LTC₄ induced contraction of guinea-pig ileum", "test": "Inhibition of leukotriene (LTC₄) induced contraction of guinea-pig ileum in vitro", "format": "cell-based, guinea-pig (Male Dunkin-Hartley strain)", "conditions": "Cavia porcellus", "experimental": "The leukotriene antagonist activity of the compounds of this invention is measured by the ability of the compounds to inhibit the leukotriene induced contraction of guinea-pig ileum in vitro as described below.\nFive (5) centimeter longitudinal strips of guinea-pig ileum (Male Dunkin-Hartley strain) were bathed in modified Tyrodes buffer, containing 3µM indomethacin, in jacketed 10 mL tissue baths at 37°C and continuously aerated with 95% O₂/5% CO₂. The tissues were connected via cotton sutures to isotonic transducers. The tissues were equilibrated for 60 minutes and 100µM histamine was added to determine the maximal response of the tissues. This was removed by washout to give a steady baseline. Then the test compound, or vehicle control, was added cumulatively in half-log units until a bath concentration of 10µM was reached.\nAfter a further equilibration period of 15 minutes, a concentration response curve to the reference agonist (LTD₄ or LTC₄) was generated. All determinations were carried out in triplicate and observations normalised against the maximal leukotriene response. Least-squares linear regression analysis was then used to calculate the concentration of leukotriene needed to elicit 50% of the maximum response and defined as the EC₅₀. […]\nAll compounds were measured against LTD₄ as the reference agonists except the compound of Example 65 which were measured against LTC₄.", "data": [{"smiles": "CCCCC/C=C\\C\\C=C/C=C/C=C/[C@@H](Sc1ccc(C(=O)O)cc1)[C@@](C)(O)CCCC(=O)O", "note": "[Example 65, 5S-Hydroxy-5-methyl-6R-(4-carboxyphenylthio)eicosa-7E,9E,11Z,14Z-tetraenoic Acid]", "values": [{"measurement": "Kb", "result": 398, "unit": "nM"}]}]}
